Data: article PMC7315563, “Bioactive fluorenes. Part III: 2,7-dichloro-9H-fluorene-based thiazolidinone and azetidinone analogues as anticancer and antimicrobial against multidrug resistant strains agents” (BMC Chemistry, 2020)
Values after ≈ are worked out from the molar mass of the structure shown.

Key:
[1] = system: WI-38 human normal fibroblast cells; assay: cell viability assay (MTT); type: cell-based; details: 24 h; for viability at 31.25 µg/mL: read-out: Validity (%) for sample concentrations (µg/mL) 31.25; for viability at 62.5 µg/mL: 62.50 µg/mL, read-out: Validity (%) for sample concentrations (µg/mL) 62.50; for viability at 125 µg/mL: read-out: Validity (%) for sample concentrations (µg/mL) 125; for viability at 250 µg/mL: read-out: Validity (%) for sample concentrations (µg/mL) 250; for viability at 500 µg/mL: read-out: Validity (%) for sample concentrations (µg/mL) 500
Experimental: (§1) WI-38 normal lung fibroblast cells, A549 lung cancer cells, and MDA-MB-231 breast cancer cells were obtained from VACSERA—Cell Culture Unit, Cairo, Egypt. The cell lines were originally obtained from the American Tissue Culture Collection (ATCC). WI-38, A549, and MDA-MB-231 cell lines were cultured in RPMI-1640 medium supplemented with 10% inactivate fetal bovine serum (FBS) and 1% penicillin/streptomycin were bought (Gibco, Invitrogen, CA). WI-38, A549, and MDA-MB-231 cells were seeded into 96-well plates (at a density of 5000 cells/well). On the following day, cells were treated with different concentrations (0, 1, 10, 31.25, 62.5, 125, 250, 500 µg/mL) of 16 fluorene derivatives in fresh medium and incubated for another 24 h. Cell viability was then assessed using the MTT assay (Sigma Aldrich, St. Louis, MO, USA), and the absorbance was read at 570 nm using an ELISA microplate reader (Molecular Devices, Downingtown, PA, USA).

[2] = system: MDA-MB-231 human breast cancer cells; assay: cell viability assay (MTT); type: cell-based; details: 24 h; for viability at 1 µg/mL: read-out: Validity (%) for sample concentrations (µg/mL) 1; for viability at 10 µg/mL: read-out: Validity (%) for sample concentrations (µg/mL) 10; for viability at 31.25 µg/mL: read-out: Validity (%) for sample concentrations (µg/mL) 31.25; for viability at 62.5 µg/mL: read-out: Validity (%) for sample concentrations (µg/mL) 62.5; for viability at 125 µg/mL: read-out: Validity (%) for sample concentrations (µg/mL) 125; for viability at 250 µg/mL: read-out: Validity (%) for sample concentrations (µg/mL) 250; for viability at 500 µg/mL: read-out: Validity (%) for sample concentrations (µg/mL) 500
Experimental: as §1

[3] = system: Staphylococcus aureus (S. aureus), multidrug resistant clinical isolate; assay: agar well diffusion assay; type: cell-based; details: Staphylococcus aureus; S. aureus; 500 µg/mL of tested compound; 24 h
Text: (§2) All microbial strains were kindly provided from the department of Medical Microbiology and Immunology faculty of Medicine Assiut University, these clinical isolates were obtained from clinical cases of infections admitted to Assiut University hospital as urinary tract infections, corneal ulcers, bacterial and fungal pneumonia, otomycosis, oral thrush and wound infections.
(§3) The clinical isolates used were multidrug resistant strains, they were resistant to β lactam (penicillin, amoxacillin, oxacillin), cephalosporins (cefazolin, cefaclor and cefepime) and macrolides (erythromycin and clarithromycin), they included Gram positive bacteria as Staphylococcus aureus (S. aureus), Methicillin-resistant Staphylococcus aureus (MRSA), Streptococcus pneumoniae (S. pneumoniae), and Gram negative bacteria as Escherichia coli (E. coli), Klebsiella pneumoniae (K. pneumoniae), Pseudomonas aeruginosa (P. aeruginosa), and Acinetobacter baumannii (A. baumannii). The fungal strains that were tested are Aspergillus flavus (A. flavus), A. niger (A. niger) and Candida albicans (C. albicans).
(§4) The antimicrobial activity of the fluorene derivatives was initially evaluated by agar well diffusion assay. Mueller–Hinton agar (CM0337) was poured into Petri dishes at 50–60 °C and left to solidify for 15 min. Subsequently, overnight microbial suspensions of tested strains was adjusted to turbidity of 0.5 McFarland Standard, which equals to 1–2 × 10^8 CFU/mL for bacteria and 1–5 × 10^6 for fungi. The microbial inoculums were then diluted in 1:100 ratio in case of bacteria and 1:10 ratio in case of fungi in order to get 1–5 × 10^5 CFU/mL. a sterile cotton swab was dipped into the adjusted microbial suspension and the Mueller–Hinton agar plates were inoculated by evenly streaking cotton swab over the agar medium. Then wells with a diameter of 0.5 cm were cut in the medium with a sterile cork borer. Stock solutions of the flourene derivatives were diluted in DMSO 1% to get 500 μg/mL concentrations. The tested flourene derivatives and controls (50 μL) were dispensed into the wells. The plates were incubated for 24 h at 37 °C for bacteria and C. albicans while at 25 °C for A. falvus and A. niger. The diameters of zones of inhibition (ZOI) around the wells were measured in mm. Following control agents were used: positive control agents—vancomycin (50 μg/mL) for Gram positive bacteria, gentamicin (10 μg/mL) (for Gram negative bacteria) and fluconazole 25 μg/mL for fungi and negative control agent is 1% DMSO.

[4] = system: A549 human lung cancer cells; assay: cell viability assay (MTT); type: cell-based; details: 24 h; for viability at 1 µg/mL: read-out: Validity (%) for sample concentrations (µg/mL) 1; for viability at 10 µg/mL: read-out: Validity (%) for sample concentrations (µg/mL) 10; for viability at 31.25 µg/mL: read-out: Validity (%) for sample concentrations (µg/mL) 31.25; for viability at 62.5 µg/mL: 62.50 µg/mL, read-out: Validity (%) for sample concentrations (µg/mL) 62.50; for viability at 125 µg/mL: read-out: Validity (%) for sample concentrations (µg/mL) 125; for viability at 250 µg/mL: read-out: Validity (%) for sample concentrations (µg/mL) 250; for viability at 500 µg/mL: read-out: Validity (%) for sample concentrations (µg/mL) 500; for viability at 1000 µg/mL: read-out: Validity (%) for sample concentrations (µg/mL) 1000
Experimental: as §1, with “On the following day, cells were treated with different concentrations (0, 1, 10, 31.25, 62.5, 125, 250, 500 µg/mL) of 16 fluorene derivatives in fresh medium and incubated for another 24 h.” left out

[5] = system: Escherichia coli (E. coli), multidrug resistant clinical isolate; assay: agar well diffusion assay; type: cell-based; details: 24 h, 500 µg/mL of tested compound
Text: as §2, §3, §4

O=C1CSC(C=Cc2ccccc2)N1c1nc(-c2cc(Cl)cc3c2-c2ccc(Cl)cc2C3)cs1 (stereo not drawn) [5i, 3-(4-(2,7-Dichloro-9H-fluoren-4-yl)thiazol-2-yl)-2-styrylthiazolidin-4-one]
melting point: 114 to 116 °C
viability at 31.25 µg/mL [1]: 88.2%
viability at 62.5 µg/mL [1]: 86.9%
viability at 125 µg/mL [1]: 69.1%
viability at 250 µg/mL [1]: 63.1%
viability at 500 µg/mL [1]: 59.3%
IC50 [1]: > 500 µg/mL
viability at 1 µg/mL [2]: 96%
viability at 10 µg/mL [2]: 83.8%
viability at 31.25 µg/mL [2]: 61%
viability at 62.5 µg/mL [2]: 56.2%
viability at 125 µg/mL [2]: 52.2%
viability at 250 µg/mL [2]: 50.5%
viability at 500 µg/mL [2]: 46.1%
IC50 [2]: 334 µg/mL (≈ 640 µM)
zone of inhibition at 500 µg/mL [3]: 10 mm
viability at 1 µg/mL [4]: 93.3%
viability at 10 µg/mL [4]: 92.2%
viability at 31.25 µg/mL [4]: 91.4%
viability at 62.5 µg/mL [4]: 85.6%
viability at 125 µg/mL [4]: 81.3%
viability at 250 µg/mL [4]: 76.9%
viability at 500 µg/mL [4]: 63.2%
viability at 1000 µg/mL [4]: 49.3%
IC50 [4]: 896 µg/mL (≈ 1720 µM)

O=C1CSC(c2ccc[nH]2)N1c1nc(-c2cc(Cl)cc3c2-c2ccc(Cl)cc2C3)cs1 (stereo not drawn) [5l, 3-(4-(2,7-Dichloro-9H-fluoren-4-yl)thiazol-2-yl)-2-(1H-pyrrol-2-yl)thiazolidin-4-one]
melting point: 124 to 126 °C
viability at 31.25 µg/mL [1]: 70.5%
viability at 62.5 µg/mL [1]: 60.6%
viability at 125 µg/mL [1]: 57.2%
viability at 250 µg/mL [1]: 48.1%
viability at 500 µg/mL [1]: 39.5%
IC50 [1]: 223 µg/mL (≈ 460 µM)
viability at 1 µg/mL [2]: 99.1%
viability at 10 µg/mL [2]: 87.6%
viability at 31.25 µg/mL [2]: 79.7%
viability at 62.5 µg/mL [2]: 76.2%
viability at 125 µg/mL [2]: 72.4%
viability at 250 µg/mL [2]: 64.6%
viability at 500 µg/mL [2]: 57.8%
IC50 [2]: > 500 µg/mL
zone of inhibition at 500 µg/mL [5]: 6 mm
zone of inhibition at 500 µg/mL [3]: 9 mm
viability at 1 µg/mL [4]: 96.5%
viability at 10 µg/mL [4]: 93.6%
viability at 31.25 µg/mL [4]: 75.4%
viability at 62.5 µg/mL [4]: 72.2%
viability at 125 µg/mL [4]: 68%
viability at 250 µg/mL [4]: 62.9%
viability at 500 µg/mL [4]: 51.9%
viability at 1000 µg/mL [4]: 41.3%
IC50 [4]: 577 µg/mL (≈ 1190 µM)

O=C1CSC(c2ccncc2)N1c1nc(-c2cc(Cl)cc3c2-c2ccc(Cl)cc2C3)cs1 (stereo not drawn) [5m, 3-(4-(2,7-Dichloro-9H-fluoren-4-yl)thiazol-2-yl)-2-(pyridin-4-yl)thiazolidin-4-one]
melting point: 110 to 112 °C
viability at 31.25 µg/mL [1]: 68.5%
viability at 62.5 µg/mL [1]: 64.6%
viability at 125 µg/mL [1]: 42.3%
viability at 250 µg/mL [1]: 40.3%
viability at 500 µg/mL [1]: 26.5%
IC50 [1]: 92 µg/mL (≈ 185 µM)
viability at 1 µg/mL [2]: 97.3%
viability at 10 µg/mL [2]: 89.5%
viability at 31.25 µg/mL [2]: 85.4%
viability at 62.5 µg/mL [2]: 88.3%
viability at 125 µg/mL [2]: 76.9%
viability at 250 µg/mL [2]: 65.6%
viability at 500 µg/mL [2]: 50.6%
IC50 [2]: 505 µg/mL (≈ 1020 µM)
zone of inhibition at 500 µg/mL [5]: 8 mm
zone of inhibition at 500 µg/mL [3]: 5 mm
viability at 1 µg/mL [4]: 94%
viability at 10 µg/mL [4]: 92.5%
viability at 31.25 µg/mL [4]: 70.7%
viability at 62.5 µg/mL [4]: 67.5%
viability at 125 µg/mL [4]: 64.5%
viability at 250 µg/mL [4]: 56.5%
viability at 500 µg/mL [4]: 37.3%
viability at 1000 µg/mL [4]: 20.1%
IC50 [4]: 357 µg/mL (≈ 719 µM)

COc1ccc(C2C(Cl)C(=O)N2c2nc(-c3cc(Cl)cc4c3-c3ccc(Cl)cc3C4)cs2)cc1 (stereo not drawn) [6b, 3-Chloro-1-(4-(2,7-dichloro-9H-fluoren-4-yl)thiazol-2-yl)-4-(4-methoxyphenyl)azetidin-2-one]
melting point: 110 to 112 °C
viability at 31.25 µg/mL [1]: 94.1%
viability at 62.5 µg/mL [1]: 87.9%
viability at 125 µg/mL [1]: 71.6%
viability at 250 µg/mL [1]: 62.6%
viability at 500 µg/mL [1]: 57.7%
IC50 [1]: > 500 µg/mL
viability at 1 µg/mL [2]: 95.9%
viability at 10 µg/mL [2]: 93.4%
viability at 31.25 µg/mL [2]: 89.7%
viability at 62.5 µg/mL [2]: 84.2%
viability at 125 µg/mL [2]: 79.8%
viability at 250 µg/mL [2]: 72.9%
viability at 500 µg/mL [2]: 68.9%
IC50 [2]: > 500 µg/mL
zone of inhibition at 500 µg/mL [5]: 12 mm
viability at 1 µg/mL [4]: 95.7%
viability at 10 µg/mL [4]: 86.9%
viability at 31.25 µg/mL [4]: 85.8%
viability at 62.5 µg/mL [4]: 83.5%
viability at 125 µg/mL [4]: 77.8%
viability at 250 µg/mL [4]: 68.2%
viability at 500 µg/mL [4]: 35.2%
viability at 1000 µg/mL [4]: 36.3%
IC50 [4]: 338 µg/mL (≈ 640 µM)
